One block for each molecule: values may come before it.
Legend:
[1] = biological target: T1, mouse CDH11 (EC1-2 domain) (Mus musculus, UniProt P55288); assay: SPR competition of homophilic CDH11 binding, Biacore T200 CM5; details: 6.25-200 uM compound co-injected with 2.5 uM EC1-2; pH 7.4 HEPES, 150 mM NaCl, 3 mM CaCl2, 1% DMSO; inhibits homodimerization, W-binding pocket (modelled); salt form ambiguous (b61 vs Table 1)
T1 construct: extracellular domains EC1-EC2 only; wild-type soluble EC1-2, and C-terminally cysteine-tagged EC1-2 immobilised on the SPR chip; forms homodimer
T1 sequence (P55288 54-268 limits assumed): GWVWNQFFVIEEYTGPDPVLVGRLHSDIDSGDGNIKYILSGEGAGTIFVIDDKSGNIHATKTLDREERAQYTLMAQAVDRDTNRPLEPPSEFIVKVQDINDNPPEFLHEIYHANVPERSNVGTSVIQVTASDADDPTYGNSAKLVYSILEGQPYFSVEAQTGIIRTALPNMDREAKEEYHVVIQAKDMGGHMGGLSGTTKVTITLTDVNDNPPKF

[2] = biological target: T1, mouse CDH11 (EC1-2 domain); assay: native gel, dimer fraction; format: binding; details: 1:1 molar ratio with purified CDH11 EC1-2, compound in DMSO; inhibits homodimerization; species of the gel protein not stated again
[3] = biological target: wild type mouse cadherin-11 (CDH11) EC1-2 (mouse); assay: native gel or EMSA; purified CDH11 EC1-2 without and with celecoxib (in DMSO, 1:1 molar ratio); monomer and dimer fractions

Molecule: Oc1ccc(-c2cccnc2-c2ccccc2)cc1 [Sd-133, 4-(2-phenyl-3-pyridyl)phenol]
SPR competition of homophilic CDH11 binding, Biacore T200 CM5 [1]: Sd-133 competed with CDH11 (ligand) in binding to immobilized CDH11 protein

Molecule: Cc1ccc(-c2cc(C(F)(F)F)nn2-c2ccc(S(N)(=O)=O)cc2)cc1 [celecoxib, 4-[5-(4-methylphenyl)-3-(trifluoromethyl)pyrazol-1-yl]benzenesulfonamide]
native gel, dimer fraction [2]: Note that celecoxib reduces the dimer fraction

stoichiometry N [3]: 2
Molecule: wild type mouse cadherin-11 (CDH11) EC1-2 (domain or fragment)

Reference: paper PMC4039224, “Cadherin-11 in poor prognosis malignancies and rheumatoid arthritis: common target, common therapies” (Oncotarget, 2013)
